Results from patent US7910305B2, “Methods for screening for compounds that modulate insulin promoter activity” (The Burnham Institute for Medical Research, priority 2005, dated 2011).
Peptide text beside a SMILES is read from it. * marks the point of attachment. Cbz = O=C(OCc1ccccc1)*

Tests used:
[1] = tested on: human insulin gene (hINS) promoter-eGFP reporter in MIN6 mouse insulinoma cells; experiment: insulin promoter-destabilized eGFP reporter fluorescence in engineered MIN6 cells; format: cell-based; settings: 384-well plates, three-fold titration series, imaged 48 hours after compound addition
Source text: We have developed a screen for small molecule compounds that modulate insulin promoter activity. Identifying these compounds and eventually their targets should provide insights into the signaling pathways that control insulin expression. The assay is based upon a mouse insulinoma, MIN6, that normally expresses insulin mRNA. This cell was engineered to stably contain two cassettes that use a fluorescent reporter protein to monitor insulin promoter activity and a housekeeping gene activity. The primary assay is to detect compounds that alter expression of an insulin promoter-destabilized eGFP reporter cassette in mouse insulinoma (MIN6) cells relative to that of a housekeeping gene, heat shock protein 68, the promoter of which is used in a second cassette to direct expression of destabilized dsRED2. […]
Engineering of MIN6 for Image-Based, High Throughput Screening. […] Viral supernatants harvested at 24 to 72 hours were 0.45 μm filtered and concentrated 100- to 200-fold by ultrafiltration using Centricon Plus-80 units (Millipore, Bedford, Mass., USA), yielding titers of approximately 10^9 transducing units (TU) per milliliter 5, determined by transduction of 293T cells with serial dilutions of the pRRL.SIN-18.cPPT.hPGK-EGFP.WPRE viral supernatant and FACS analysis to determine the percentage of EGFP-expressing cells. […]

[2] = tested on: human insulin promoter-eGFP reporter in T6PN/E47MER cells; experiment: insulin promoter-eGFP reporter fluorescence in T6PN/E47MER cells; format: cell-based; settings: T6PN/E47MER cells infected with insulin promoter-eGFP lentiviral vector
Source text: (§1) To increase the level of insulin expression, TRM-6 cells expressing PDX-1 and NeuroD1 (T6PN cells) (Follenzi et al., Nature Genet. 25:217-222, 2000) were infected with an E47^MER retroviral vector and selected by FACS. E47^MER consists of the class I bHLH factor E47 which is a potent insulin transactivator fused to a mutated estrogen receptor that renders it functional only in the presence of tamoxifen. […] To determine whether the effects of E47 were limited to insulin expression or had more general effects on beta-cell differentiation, a panel of other beta-cell genes was examined. […] Thus, T6PN/E47^MER cells express a substantial number of important beta-cell genes, making them an appropriate target for the insulin promoter screens described herein.
Assay Protocol. The following is a detailed assay protocol for the primary assay, i.e., first assay performed in a testing scheme to identify biologically active chemical entities in a screening mode: […]

insulin mRNA = experiment: RT-PCR for endogenous insulin mRNA in T6PN/E47MER cells; format: cell-based, human
Source text: (A) Insulin mRNA is barely detectable by non-quantitative RT-PCR in the absence of tamoxifen in two biological replicates of T6PN/E47^MER cells.
Cells were exposed to 5 micromolar compound and also had 0.5 micromolar tamoxifen. […] […] Both GFP and insulin mRNA levels are normalized for GAPDH mRNA to rule out nonspecific effects of the compounds on transcription.
as §1
Second Confirmatory Assay. Compounds that passed the primary confirmatory assay were passed on for further testing in a secondary confirmatory assay. This consisted of RT-PCR of GFP and endogenous insulin mRNA (FIG. 7). Both GFP and endogenous insulin RT-PCR assays are performed because of the possibility that a compound may affect the 1.4 kb insulin promoter transgene but not the endogenous insulin promoter, which may be under more complex control.

myosin heavy chain gene = experiment: RT-PCR for myosin heavy chain gene in T6PN/E47MER cells; format: cell-based, human

| SMILES | eGFP fluorescence [1] | eGFP induction [2] | insulin mRNA (RT-PCR), positive control (insulin mRNA; 4 micromolar tamoxifen control) | insulin mRNA by non-quantitative RT-PCR (insulin mRNA; T6PN/E47MER cells with versus without tamoxifen, two biological replicates) | insulin mRNA by quantitative real-time RT-PCR (insulin mRNA; T6PN/E47MER cells, E47 activity induced by tamoxifen, two biological replicates) | induction of insulin gene expression (insulin mRNA; induction of E47 activity (E47MER functional only with tamoxifen) in T6PN cells) [fold] | myosin heavy chain gene induction (myosin heavy chain gene) |
| --- | --- | --- | --- | --- | --- | --- | --- |
| CC(C)C[C@@H](C=O)NC(=O)[C@H](CC(C)C)NC(=O)[C@H](CC(C)C)NC(=O)OCc1ccccc1 [MG132] (Cbz-Leu-Leu-Leu-aldehyde) | dose-dependent increase in eGFP fluorescence |  |  |  |  |  |  |
| C[C@@H]1C[C@@H]([C@H](O)CC2CC(=O)NC(=O)C2)C(=O)[C@@H](C)C1 [cyclohexamide] | decrease in fluorescence intensity |  |  |  |  |  |  |
| CC/C(=C(\c1ccccc1)c1ccc(OCCN(C)C)cc1)c1ccccc1 [tamoxifen] |  | High levels of eGFP | maximum induction of insulin mRNA | strongly induced | dramatic upregulation of insulin mRNA | 100 | not induced |
